The source of these data is patent US20220204457A1, “ARGININE GINGIPAIN INHIBITORS” (Cortexyme, Inc., priority 2019, published 2022).

The target of one data set is T1, cathepsin K (Homo sapiens, UniProt P43235).
T1 sequence (P43235 115-329): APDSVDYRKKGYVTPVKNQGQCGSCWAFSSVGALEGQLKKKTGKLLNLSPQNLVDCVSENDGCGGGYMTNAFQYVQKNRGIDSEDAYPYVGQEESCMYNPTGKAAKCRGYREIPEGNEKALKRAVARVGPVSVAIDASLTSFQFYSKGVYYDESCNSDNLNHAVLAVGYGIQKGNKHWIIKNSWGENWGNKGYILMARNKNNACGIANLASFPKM
Nature of the data set: cathepsin screen. The data set is classed as biochemical.

The target in a further data set is T2, cathepsin F (Homo sapiens, UniProt Q9UBX1).
T2 sequence (Q9UBX1 271-484): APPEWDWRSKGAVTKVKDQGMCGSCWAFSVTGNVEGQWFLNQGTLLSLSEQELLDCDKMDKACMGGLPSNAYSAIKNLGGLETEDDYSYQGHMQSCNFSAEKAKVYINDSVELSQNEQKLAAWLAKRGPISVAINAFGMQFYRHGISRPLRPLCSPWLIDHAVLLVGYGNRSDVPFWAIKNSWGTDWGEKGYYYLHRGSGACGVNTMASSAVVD
Nature of the data set: cathepsin screen. The data set is classed as biochemical.

A further data set concerns the target cathepsin L (Homo sapiens, UniProt P07711). Nature of the data set: cathepsin screen. The data set is classed as biochemical.
Another data set has as its target cathepsin V (Homo sapiens, UniProt O60911). As to the kind of experiment: cathepsin screen. The data set is classed as biochemical.
A further data set has as its target T3, cathepsin H (Homo sapiens, UniProt P09668).
T3 sequence (P09668 98-335): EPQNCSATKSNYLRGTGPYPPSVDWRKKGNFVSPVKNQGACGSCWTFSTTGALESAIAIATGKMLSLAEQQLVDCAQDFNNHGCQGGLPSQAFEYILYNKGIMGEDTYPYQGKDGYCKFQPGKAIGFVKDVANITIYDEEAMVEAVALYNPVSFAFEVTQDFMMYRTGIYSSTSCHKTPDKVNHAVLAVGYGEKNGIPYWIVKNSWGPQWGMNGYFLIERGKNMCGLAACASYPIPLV
As to the kind of experiment: cathepsin screen. The data set is classed as biochemical.

Another data set addresses cathepsin S (Homo sapiens, UniProt P25774). Nature of the data set: cathepsin screen. It counts as biochemical.
A further data set addresses cathepsin B (Homo sapiens, UniProt P07858). Nature of the data set: cathepsin screen. It counts as biochemical. The procedure: The method can also be used to assay enzymes including Kgp, trypsin, and cathepsins such as cathepsin B. For Kgp, the substrate can be succinyl-Ala-Phe-Lys-AMC. For trypsin, the buffer can contain 10 mM Tris and 10 mM CaCl2 (pH 8.0), and the substrate can be Z-Gly-Gly-Arg-AMC. For cathepsin B, the buffer can contain 50 mM sodium phosphate, 1 mM EDTA, and 10 mM 2-mercaptoethanol (pH 6.25), and the substrate can be Z-Arg-Arg-AMC.

For data set [1] the following is noted: oral administration of RTV 15 minutes prior to Kyt-36; from U.S. Pat. No. 9,758,473; cited from earlier work.

A value given as a limit tells only on which side of the number the result lay.

Chain of cathepsin L (P07711 114-333): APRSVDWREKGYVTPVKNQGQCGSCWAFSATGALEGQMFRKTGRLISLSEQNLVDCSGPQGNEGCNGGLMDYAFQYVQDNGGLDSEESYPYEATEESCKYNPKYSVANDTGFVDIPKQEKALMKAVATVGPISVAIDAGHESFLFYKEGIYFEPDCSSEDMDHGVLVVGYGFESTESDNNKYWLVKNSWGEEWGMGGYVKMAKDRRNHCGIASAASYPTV
Chain of cathepsin V (O60911 114-334): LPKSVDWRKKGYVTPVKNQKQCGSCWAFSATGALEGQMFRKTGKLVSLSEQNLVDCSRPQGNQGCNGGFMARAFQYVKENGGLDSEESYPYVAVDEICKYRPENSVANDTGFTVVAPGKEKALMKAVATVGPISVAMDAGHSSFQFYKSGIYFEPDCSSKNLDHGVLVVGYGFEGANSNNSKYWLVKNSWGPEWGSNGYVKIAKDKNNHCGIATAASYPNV
Chain of cathepsin S (P25774 115-331): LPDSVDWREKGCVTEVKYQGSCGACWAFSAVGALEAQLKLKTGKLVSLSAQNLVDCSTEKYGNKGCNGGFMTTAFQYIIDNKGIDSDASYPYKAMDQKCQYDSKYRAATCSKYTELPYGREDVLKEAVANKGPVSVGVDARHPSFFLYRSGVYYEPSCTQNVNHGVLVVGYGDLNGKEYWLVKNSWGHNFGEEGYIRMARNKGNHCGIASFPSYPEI

For the molecule `COC(C)(C)C(=O)N[C@@H](CCCNC(=N)N)C(=O)COC(C(F)(F)F)C(F)(F)F` [Compound 1, (S)-N-(6-guanidino-1-((1,1,1,3,3,3-hexafluoropropan-2-yl)oxy)-2-oxohexan-3-yl)-2-methoxy-2-methylpropanamide], the IC50 on cathepsin K, against cathepsin F, against cathepsin L, on cathepsin V, against cathepsin H and at cathepsin S was greater than 10 µM in each case. The molecule further showed an IC50 at cathepsin B greater than 10 µM.
Consider `CN(NC(=O)CC[C@H](NC(=O)OCc1ccccc1)C(=O)N[C@@H](CCCCN)C(=O)C(=O)NCc1ccccc1)c1ccccc1` [Kyt-36], for which, in data set [1], the half-life entry was “increases the half-life”.
